From the RepoRT retention time repository (doi:10.1016/j.jhazmat.2019.121712) come the findings set out here.

A short description of this series: Thermo Scientific Acclaim RSLC 120 C18, 100 × 2.1 mm, 2.2 µm, 30 °C; A: 90% water + 10% methanol + 0.01% formic acid + 5 mM ammonium formate; B: methanol + 0.01% formic acid + 5 mM ammonium formate; gradient (min/%B) 0.1/1 3/39 14/99.9 16/99.9. Conditions: stereoisomer not certain.
As for `CC(C)(C)NC(=O)C1CN(Cc2cccnc2)CCN1CC(O)CC(Cc1ccccc1)C(=O)NC1c2ccccc2CC1O` (centres undefined), the LC retention time came to 9.79 min.

For the molecule `CCC(=C(c1ccccc1)c1ccc(OCCN(C)C)cc1)c1ccccc1`, the LC retention time amounted to 11 min.

For the molecule `CC(Cc1ccccc1)NCCC#N` (centres undefined), the LC retention time turned out to be 4.14 min.

In the case of `CC(C)(C)c1ccc(C(O)CCCN2CCC(C(O)(c3ccccc3)c3ccccc3)CC2)cc1` (centres undefined), the LC retention time amounted to 9.69 min.

For `COP(=S)(OC)Oc1ccc(S(=O)(=O)N(C)C)cc1`, the LC retention time turned out to be 7.99 min.

On to `COC1C(OC(N)=O)C(O)C(Oc2ccc3c(O)c(NC(=O)c4ccc(O)c(CC=C(C)C)c4)c(=O)oc3c2C)OC1(C)C` (centres undefined), for which the LC retention time was 11.2 min.

In the case of `CC1C(=O)OC2CCN3CC=C(COC(=O)C(C)(O)C1(C)O)C23` (centres undefined), the LC retention time turned out to be 2.92 min.

`CCCCCc1cc(O)c2c(c1)OC(C)(C)c1ccc(C)cc1-2`: the LC retention time stood at 13.7 min.

`O=C(O)Cc1cccc2ccccc12`: the LC retention time turned out to be 7.76 min.

With `CCCC(NC)C(=O)c1ccc2c(c1)OCO2` (centres undefined), the LC retention time came to 4.99 min.

As to `CCCCCCCCCCCC(CC1OC(=O)C1CCCCCC)OC(=O)C(CC(C)C)NC=O` (centres undefined), the LC retention time came out at 14.6 min.

In the case of `CN(C)CCOc1ccccc1Cc1ccccc1`, the LC retention time was 7.29 min.

With `CN1CCC(OC(c2ccccc2)c2ccccc2)CC1`, the LC retention time amounted to 7.23 min.

For the molecule `CC1C=CC=CCCC=CC=CC=CC=CC(OC2OC(C)C(O)C(N)C2O)CC2OC(O)(CC(O)C(O)CCC(O)CC(O)CC(O)CC(=O)OC(C)C(C)C1O)CC(O)C2C(=O)O` (centres undefined), the LC retention time amounted to 10.3 min.

Regarding `O=C(Oc1cccc2cccnc12)c1cn(CC2CCCCC2)c2ccccc12`, the LC retention time turned out to be 12.4 min.

Consider `CCN(CC)CCOC(=O)C(c1ccccc1)C1CCCCC1` (centres undefined), for which the LC retention time is 9.19 min.

With `Nc1ccc([N+](=O)[O-])cc1C(=O)c1ccccc1`, the LC retention time came to 8.99 min.

For the molecule `CN(C)CCCN1c2ccccc2CCc2ccccc21`, the LC retention time turned out to be 8.08 min.

Turning to `CCC(=O)OC(Cc1ccccc1)(c1ccccc1)C(C)CNC` (centres undefined), the LC retention time turned out to be 7.84 min.

Take `Nc1ccc(S(=O)(=O)Nc2nccs2)cc1`: the LC retention time was determined as 3.63 min.

Take `NC(=O)N=C(N)N`: the LC retention time came to 1.31 min.

In the case of `COC(=O)C(NC(=O)c1cn(CC2CCCCC2)c2ccccc12)C(C)(C)C` (centres undefined), the LC retention time amounted to 12.4 min.

With `CCCCCn1c(C)c(C(=O)c2cccc3ccccc23)c2ccccc21`, the LC retention time was 12.6 min.

For the molecule `CC(=O)OC1CN2CCC1CC2` (centres undefined), the LC retention time came out at 4.87 min.

Turning to `CC(Cn1cnc2c(N)ncnc21)OCP(=O)(O)O` (centres undefined), the LC retention time was 2.69 min.

Take `CC(=O)CCCCn1c(=O)c2c(ncn2C)n(C)c1=O`: the LC retention time came to 5.23 min.

Turning to `CC(=O)Nc1ccc(S(=O)(=O)Nc2nc(C)cc(C)n2)cc1`, the LC retention time worked out at 4.59 min.

For `CCCC(=O)Nc1ccc(OCC(O)CNC(C)C)c(C(C)=O)c1` (centres undefined), the LC retention time is 4.78 min.

Take `CN(C)C(CCOc1cccc2ccccc12)c1ccccc1` (centres undefined): the LC retention time amounted to 8.34 min.

Regarding `COc1ccc(CCN(C)CCCC(C#N)(c2cc(OC)c(OC)c(OC)c2)C(C)C)cc1OC` (centres undefined), the LC retention time was 7.19 min.

On to `COc1cc(CC(C)N)c(OC)cc1C` (centres undefined), for which the LC retention time turned out to be 5.83 min.

Regarding `CCCCCCCC(C)(C)c1ccc(C2CCCC(O)C2)c(O)c1` (centres undefined), the LC retention time was determined as 13.5 min.

`COc1ccc2[nH]cc(CC(C)N)c2c1` (centres undefined): the LC retention time was found to be 4.36 min.

Consider `CCCCn1cc(C(=O)c2c(C)ccc3ccccc23)c2ccccc21`, for which the LC retention time was 12.3 min.

In the case of `CCCCCCCCOC(=O)c1ccccc1C(=O)OCCCCCCCC`, the LC retention time was found to be 15.3 min.

Turning to `CC(C)(C)NCC(O)c1ccc(O)c(CO)c1` (centres undefined), the LC retention time was found to be 3.23 min.

On to `CC(C(=O)c1ccc2c(c1)OCO2)N(C)C` (centres undefined), for which the LC retention time stood at 3.78 min.

Take `Cc1cc(C)nc(NC(=O)NS(=O)(=O)c2ccccc2C(=O)OC2COC2)n1`: the LC retention time is 6.52 min.

Turning to `CNC(C)C(O)c1ccccc1` (centres undefined), the LC retention time was 3.76 min.

For the molecule `Oc1ccc2c3c1OC1C(O)CCC4(O)C(C2)N(CC2CCC2)CCC314` (centres undefined), the LC retention time amounted to 4.17 min.

In the case of `CCc1ccc(C(=O)NN(C(=O)c2cc(C)cc(C)c2)C(C)(C)C)cc1`, the LC retention time was found to be 10.4 min.

On to `C#CC[N+](C)([O-])C(C)Cc1ccccc1` (centres undefined), for which the LC retention time turned out to be 5.33 min.

On to `O=C(Nc1ccccc1)Nc1cnns1`, for which the LC retention time came out at 7.17 min.

As for `Oc1ccc(C=Cc2cc(O)cc(O)c2)cc1`, the LC retention time amounted to 5.93 min.

`N#CSCSc1nc2ccccc2s1`: the LC retention time is 9.25 min.

On to `CNC(=O)CSP(=O)(OC)OC`, for which the LC retention time turned out to be 3.35 min.

For `CN1CCC(=C2c3ccccc3C=Cc3ccccc32)CC1`, the LC retention time turned out to be 7.89 min.

With `CCC(=O)c1ccc2c(c1)N(CCCN(C)C)c1ccccc1S2`, the LC retention time is 8.49 min.

For the molecule `CCCCCn1cc(C(=O)NCc2ccccc2)c2ccccc21`, the LC retention time worked out at 11.2 min.

`CNCCCN1c2ccccc2CCc2ccccc21`: the LC retention time turned out to be 8.08 min.

Take `Cc1nccn1CC1CCc2c(c3ccccc3n2C)C1=O` (centres undefined): the LC retention time turned out to be 4.98 min.

As for `NS(=O)(=O)c1ccc(N2CCCCS2(=O)=O)cc1`, the LC retention time came out at 4.11 min.

On to `CN(C)C(=O)Nc1ccccc1`, for which the LC retention time is 5.12 min.

Turning to `COP(=S)(OC)Oc1ccc(S(N)(=O)=O)cc1`, the LC retention time was 6.19 min.

Regarding `NC(Cc1cnc[nH]1)C(=O)O` (centres undefined), the LC retention time turned out to be 1.23 min.

Turning to `CNC(=O)Oc1cc(C)cc(C)c1C`, the LC retention time stood at 8.4 min.

In the case of `CC12C=CC(=O)C=C1CCC1C2CCC2(C)C(O)CCC12` (centres undefined), the LC retention time was determined as 9.03 min.

Regarding `CC(C)CC(CN)CC(=O)O` (centres undefined), the LC retention time was 3.88 min.

Consider `CC1=C(C(=O)O)N2C(=O)C(NC(=O)C(N)c3ccc(O)cc3)C2SC1` (centres undefined), for which the LC retention time was determined as 2.84 min.

Consider `CN1CCC23c4c5ccc(O)c4OC2C(O)C=CC3C1C5` (centres undefined), for which the LC retention time is 2.54 min.

With `Cc1cccc2sc3nncn3c12`, the LC retention time turned out to be 5.93 min.

As for `Cc1cc(C)nc(Nc2ccccc2)n1`, the LC retention time stood at 9.44 min.

Regarding `CSc1nc(N=[N+]=[N-])nc(NC(C)C)n1`, the LC retention time came out at 9.71 min.

For `CC1=NNC(=O)N(N=Cc2cccnc2)C1`, the LC retention time was found to be 4.01 min.

With `CCN(CC)CCOCCOC(=O)C1(c2ccccc2)CCCC1`, the LC retention time was found to be 7.87 min.

Regarding `CCCOP(=O)(OCCC)Oc1ccc(SC)cc1`, the LC retention time was 10.8 min.

Consider `CCC(N)Cc1c[nH]c2ccccc12` (centres undefined), for which the LC retention time came out at 5.04 min.

On to `CC(Cc1ccccc1)N1C=C(NC(=O)N=C2C=CC(=O)C=C2)ON1` (centres undefined), for which the LC retention time stood at 7.24 min.

Turning to `O=C1CN=C(c2ccccc2)c2c(sc3c2CCCC3)N1`, the LC retention time was found to be 9.49 min.

As for `COC(=O)Nc1nc2ccc(Sc3ccccc3)cc2[nH]1`, the LC retention time came to 10.3 min.

As for `CCNC(=O)C(C)OC(=O)Nc1ccccc1` (centres undefined), the LC retention time came to 6.58 min.

Turning to `CCC(C(=O)c1ccc2c(c1)OCO2)N1CCCC1` (centres undefined), the LC retention time is 4.49 min.

Regarding `CCCCNc1cc(C(=O)O)cc(S(N)(=O)=O)c1Oc1ccccc1`, the LC retention time is 7.83 min.

As for `COP(=S)(OC)SCN1C(=O)c2ccccc2C1=O`, the LC retention time amounted to 8.94 min.

Consider `CCCCCn1cc(C(=O)Cc2cccc(OC)c2)c2ccccc21`, for which the LC retention time is 11.6 min.

`COC(=O)C1=C(C)NC(C)=C(C(=O)OCC(C)C)C1c1ccccc1[N+](=O)[O-]` (centres undefined): the LC retention time is 10.6 min.

Turning to `CCOC(=O)c1cn2nc(OP(=S)(OCC)OCC)cc2nc1C`, the LC retention time is 11.4 min.

For `Nc1nc2c(ncn2COCCO)c(=O)[nH]1`, the LC retention time worked out at 2.34 min.

For the molecule `CNC(C)Cc1ccccc1` (centres undefined), the LC retention time amounted to 4.21 min.

Turning to `Cc1ccccc1C(OCCN(C)C)c1ccccc1` (centres undefined), the LC retention time turned out to be 7.44 min.

On to `CN(C)CC1CCCCC1(O)c1cccc(O)c1` (centres undefined), for which the LC retention time turned out to be 4.06 min.

`COCC(NC(C)=O)C(=O)NCc1ccccc1` (centres undefined): the LC retention time turned out to be 5.09 min.

As for `CCCC1CC(C(=O)NC(C(C)O)C2OC(SC)C(O)C(O)C2O)N(C)C1` (centres undefined), the LC retention time amounted to 4.08 min.

Regarding `CCCOP(=S)(OCCC)OP(=S)(OCCC)OCCC`, the LC retention time was determined as 12.9 min.

For `CCOP(=S)(OCC)N1C(=O)c2ccccc2C1=O`, the LC retention time came out at 10.2 min.

`CC(CCc1ccccc1)NCC(O)c1ccc(O)c(C(N)=O)c1` (centres undefined): the LC retention time was found to be 5.74 min.

Consider `CN1CC(=O)N2C(Cc3c([nH]c4ccccc34)C2c2ccc3c(c2)OCO3)C1=O` (centres undefined), for which the LC retention time is 8.26 min.

Regarding `CNC(C)Cc1ccccc1OC` (centres undefined), the LC retention time is 4.69 min.

Turning to `C=CC(=O)NC(C)(C)CS(=O)(=O)O`, the LC retention time came to 2.8 min.

In the case of `CCCCCC(C)N` (centres undefined), the LC retention time turned out to be 5.01 min.

For `COc1ccc(C(=O)c2c(C)n(CCN3CCOCC3)c3ccccc23)cc1`, the LC retention time was determined as 9.55 min.

For the molecule `Nc1ccc(N=Nc2ccccc2)c(N)n1`, the LC retention time is 8.49 min.

On to `CCN(CC)CC#CCOC(=O)C(O)(c1ccccc1)C1CCCCC1` (centres undefined), for which the LC retention time amounted to 8.92 min.

For `CCOP(=O)(OCC)OP(=O)(OCC)OCC`, the LC retention time amounted to 6.49 min.

Consider `CC(N)Cc1ccc(O)cc1` (centres undefined), for which the LC retention time came to 2.98 min.

Consider `COC(=O)C1C(O)CC2CCC1N2C` (centres undefined), for which the LC retention time was found to be 1.38 min.

In the case of `O=C1NC(=O)C(c2ccccc2)(c2ccccc2)N1`, the LC retention time is 7.08 min.

With `COc1cc(C(=O)NCc2ccc(OCCN(C)C)cc2)cc(OC)c1OC`, the LC retention time was found to be 4.86 min.

For `CCOP(=O)(OCC)Oc1ccc([N+](=O)[O-])cc1`, the LC retention time amounted to 8.01 min.
